Reference: patent US20210348119A1, “COMPOSITIONS AND METHODS FOR CELL CULTURE” (The United States of America as Represented By The …, priority 2018, published 2021)
“And” between values parts separate entries of the source, which are not always exact repeats. Identical values can stand only once. Like-named read-outs stand apart in the source and are kept apart here.

Test system: H9 cells
Assay: qHTS for survival of dissociated H9 cells (CellTiter-Glo, 24 hours after seeding)
Type: cell-based, human
Text: FIG. 2 schematically illustrates qHTS procedure.
All the screed compounds were received pre-plated at the pre-determined concentrations. […] Curve classification is explained in Huang et al. “Chemical genomics profiling of environmental chemical modulation of human nuclear receptors” Environ. Health. Perspect.

[1] = H9 cell survival normalized to 10 μM Y-27632 (taken to be 100%)
[2] = H9 cell survival, CellTiter-Glo 24 hours after seeding; read-out: AC50 (concentration at 50% efficacy)
[3] = H9 cell survival, normalized to 10 μM Y-27632
[4] = Homo sapiens, H9, 24 h; read-out: Efficacy (activity range between predicted activities at zero and infinite doses, Hill equation)
[5] = Homo sapiens, H9, 24 h; read-out: Max (maximum activity value from all tested concentrations)
[6] = Homo sapiens; H9 cell survival, CellTiter-Glo 24 hours after seeding; read-out: AC50 (concentration at 50% efficacy)
[7] = Homo sapiens, H9, 24 h, H9 cell survival normalized to 10 μM Y-27632 (taken to be 100%); read-out: Max (maximum activity value from all tested concentrations)
[8] = Homo sapiens, H9, 24 h, H9 cell survival, CellTiter-Glo 24 hours after seeding; read-out: AC50 (concentration at 50% efficacy)
[9] = Homo sapiens, H9, 24 h, H9 cell survival, normalized to 10 μM Y-27632; read-out: Efficacy (activity range between predicted activities at zero and infinite doses, Hill equation)

For N#Cc1cc(-c2ccnc(Nc3ccc(N4CCOCC4)cc3)n2)ccc1OC1CCOCC1 [IKK epsilon-IN-1], the “Max (maximum activity value from all tested concentrations)” value [1] was 28.74%, the AC50 [2] was 14.7 µM and the “Efficacy (activity range between predicted activities at zero and infinite doses, Hill equation)” value [3] was 30.6.
Compound C/C=C(/C)C(=O)O[C@H]1C(C)=C[C@]23C(=O)[C@@H](C=C(CO)[C@@H](O)[C@]12O)[C@H]1[C@@H](C[C@H]3C)C1(C)C [Ingenol mebutate] has an Emax [4] of 41.4%, an Emax [5] of 57.6% and an AC50 [6] of 0.118 µM.
With CNc1ccc([N+](=O)[O-])c(Nc2ccc3[nH]ncc3c2)n1 [KRIBB11] the “Max (maximum activity value from all tested concentrations)” value [1] was 72.62%, the AC50 [2] was 0.585 µM and the “Efficacy (activity range between predicted activities at zero and infinite doses, Hill equation)” value [3] was 62.1.
Compound O=C(c1ccc(/C=C/c2n[nH]c3ccccc23)cc1)N1CCNCC1 [KW-2449] has an Emax [7] of 40%, an AC50 [8] of 33.2 µM and an Emax [9] of 44.5%.
In the case of O=C(NCc1cccc(O)c1)c1cc2cc(F)ccc2[nH]1 [KX1-004], the “Max (maximum activity value from all tested concentrations)” value [1] is reported as 102.2%, the AC50 [2] is reported as 3.29 µM and the “Efficacy (activity range between predicted activities at zero and infinite doses, Hill equation)” value [3] is reported as 103.
Cc1c[nH]c2ncnc(N3CCC(CN)(C(=O)Nc4cccc(OC(=O)N(C)C)c4)CC3)c12 [LX-7101] gave an Emax [4] of 21.6%, an Emax [5] of 53.7% and an AC50 [6] of 2.33 µM.
C[C@]12O[C@H](C[C@]1(O)CO)n1c3ccccc3c3c4c(c5c6ccccc6n2c5c31)CNC4=O [Lestaurtinib] gave an AC50 (Homo sapiens, H9, 24 h, read-out: AC50 (concentration at 50% efficacy)) of 1.18 µM, an Emax (Homo sapiens, H9, 24 h, read-out: Efficacy (activity range between predicted activities at zero and infinite doses, Hill equation)) of 7.59% and an Emax (Homo sapiens, H9, 24 h, read-out: Max (maximum activity value from all tested concentrations)) of 53%.
Cc1nc(N2CCN(C(=O)c3ccco3)CC2)c2c3c(sc2n1)CCCC3 [ML192] was tested, and the “Max (maximum activity value from all tested concentrations)” value [1] was 25.23%, the AC50 [2] was 0.521 µM and the “Efficacy (activity range between predicted activities at zero and infinite doses, Hill equation)” value [3] was 13.5.
Work on N#CCNC(=O)c1ccc(-c2ccnc(Nc3ccc(N4CCOCC4)cc3)n2)cc1 [Momelotinib] yielded an AC50 [8] of 0.935 µM.
For C=C(CO)C(=O)O[C@H]1CC(=C)[C@@H]2C[C@H](O)C(=C)[C@@H]2[C@H]2OC(=O)C(=C)[C@@H]21 [NCGC00168845-02], the “Max (maximum activity value from all tested concentrations)” value [1] was 21.8%, the AC50 [2] was 3.61 µM and the “Efficacy (activity range between predicted activities at zero and infinite doses, Hill equation)” value [3] was 27.1.
CN(C)c1ccc(Nc2nc(N)n(C(=O)c3c(F)cccc3F)n2)cc1 [NCGC00244250] was tested, and the “Max (maximum activity value from all tested concentrations)” value [1] was 58.27% and 40.04%, the AC50 [2] was 6.56 µM and 8.33 µM and the “Efficacy (activity range between predicted activities at zero and infinite doses, Hill equation)” value [3] was 23.7 and 39.3.
For CC(C)CC(=O)OC1OC=C(CO[C@@H]2O[C@H](CO)[C@@H](O)[C@H](O)[C@H]2O)C2CC(O)C(O)(CO)C12 (stereo partly shown) [NCGC00347879-02], the “Max (maximum activity value from all tested concentrations)” value [1] was 30.87% and the “Efficacy (activity range between predicted activities at zero and infinite doses, Hill equation)” value [3] was 0.
With CC1(CCOC2OC(CO)C(O)C(O)C2O)CCC23OC2(C1)C(O)CC1C(C)(C(=O)O)CCCC13C (stereo not shown) [NCGC00380931-01] the “Max (maximum activity value from all tested concentrations)” value [1] was 24.96%, the AC50 [2] was 11.4 µM and the “Efficacy (activity range between predicted activities at zero and infinite doses, Hill equation)” value [3] was 28.
With C[C@@H]1O[C@@H](OC2C(O[C@H]3[C@H](O[C@H]4CC[C@@]5(C)C(CC[C@]6(C)C5CC=C5C7CC(C)(C)CC(O)[C@]7(C)CC[C@]56C)C4(C)C)O[C@H](C(=O)O)[C@@H](O)[C@@H]3O)OC(CO)C(O)C2O)[C@H](O)[C@H](O)[C@H]1O (stereo partly shown) [NCGC00381003-01] the “Max (maximum activity value from all tested concentrations)” value [1] was 22.06%, the AC50 [2] was 2.48 µM and the “Efficacy (activity range between predicted activities at zero and infinite doses, Hill equation)” value [3] was 24.5.
For CC(=O)O[C@H]1C(=O)[C@]2(C)C(O)C[C@H]3OC[C@@]3(OC(C)=O)[C@H]2[C@H](OC(=O)c2ccccc2)[C@]2(O)C[C@H](O)C(C)=C1C2(C)C (stereo partly shown) [NCGC00384655-01], the “Max (maximum activity value from all tested concentrations)” value [1] was 23.91%, the AC50 [2] was 1.74 µM and the “Efficacy (activity range between predicted activities at zero and infinite doses, Hill equation)” value [3] was 29.1.
For CC1(C)CC[C@]2(C(=O)O[C@@H]3O[C@H](CO[C@@H]4O[C@H](CO)[C@@H](O)[C@H](O)[C@H]4O[C@@H]4O[C@H](CO)[C@H](O)[C@H](O)[C@H]4O)[C@@H](O)[C@H](O[C@@H]4O[C@H](CO)[C@@H](O)[C@H](O)[C@H]4O)[C@H]3O)CC[C@]3(C)C(=CCC4[C@@]5(C)CC[C@H](O[C@@H]6OC[C@@H](O)[C@H](O)[C@H]6O)[C@@](C)(C(=O)O)C5CC[C@]43C)[C@@H]2C1 (stereo partly shown) [NCGC00384798-01], the “Max (maximum activity value from all tested concentrations)” value [1] was 38.81% and the “Efficacy (activity range between predicted activities at zero and infinite doses, Hill equation)” value [3] was 0.
For COc1ccc2c(c1O)OC[C@H]1c3ccc(O)cc3O[C@@H]21 [NCGC00384860-01], the “Max (maximum activity value from all tested concentrations)” value [1] was 22.82%, the AC50 [2] was 18.5 µM and the “Efficacy (activity range between predicted activities at zero and infinite doses, Hill equation)” value [3] was 29.1.
For C=C1CC[C@@H]2[C@@](C)(CO[C@@H]3O[C@H](CO)[C@@H](O)[C@H](O)[C@H]3O)[C@H](O)CC[C@@]2(C)[C@@H]1CC/C(C)=C/CO[C@@H]1O[C@H](CO)[C@@H](O)[C@H](O)[C@H]1O [NCGC00385284-01], the “Max (maximum activity value from all tested concentrations)” value [1] was 26.38%, the AC50 [2] was 0.001 µM and the “Efficacy (activity range between predicted activities at zero and infinite doses, Hill equation)” value [3] was −31.2.
For C[C@@H]1O[C@@H](O[C@H]2[C@H](O[C@H]3[C@H](O[C@H]4CC[C@@]5(C)C(CC[C@]6(C)C5CC=C5[C@@H]7CC(C)(C(=O)O)C[C@@H](O)[C@]7(C)CC[C@]56C)[C@@]4(C)CO)O[C@H](C(=O)O)[C@@H](O)[C@@H]3O)O[C@H](CO)[C@H](O)[C@@H]2O)[C@H](O)[C@H](O)[C@H]1O (stereo partly shown) [NCGC00385739-01], the “Max (maximum activity value from all tested concentrations)” value [1] was 23.02%, the AC50 [2] was 3.13 µM and the “Efficacy (activity range between predicted activities at zero and infinite doses, Hill equation)” value [3] was 24.5.
In the case of COC(=O)c1cc(Br)cnc1N1CCC(NC2CCCCC2)C(O)C1 (stereo not shown) [NCGC00386932-01], the “Max (maximum activity value from all tested concentrations)” value [1] is reported as 22.59%, the AC50 [2] is reported as 0.004 µM and the “Efficacy (activity range between predicted activities at zero and infinite doses, Hill equation)” value [3] is reported as −26.5.
With NS(=O)(=O)c1ccc(Nc2nc(OCC3CCCCC3)c3[nH]cnc3n2)cc1 [NU-6102] the “Max (maximum activity value from all tested concentrations)” value [1] was 46.11% and 34.8% and the “Efficacy (activity range between predicted activities at zero and infinite doses, Hill equation)” value [3] was 57.9 and 43.8.
With Cl.Cl.Fc1ccccc1CNCc1ccc(-c2ccnc3[nH]ccc23)cc1 [OXA 06 dihydrochloride] the “Max (maximum activity value from all tested concentrations)” value [1] was 108.2%, the AC50 [2] was 0.736 µM and the “Efficacy (activity range between predicted activities at zero and infinite doses, Hill equation)” value [3] was 110.
In the case of CCCCC1C(=O)N(c2ccccc2)N(c2ccc(O)cc2)C1=O (stereo not shown) [OXYPHENBUTAZONE], the “Max (maximum activity value from all tested concentrations)” value [1] is reported as 22.37%, the AC50 [2] is reported as 23.3 µM and the “Efficacy (activity range between predicted activities at zero and infinite doses, Hill equation)” value [3] is reported as 25.7.
With CNS(=O)(=O)C[C@H]1CC[C@H](N(C)c2ncnc3[nH]ccc23)CC1 [Oclacitinib (PF-03394197), Oclacitinib] the Emax [7] was 93.8%, the AC50 [8] was 20.8 µM and the Emax [9] was 99.9%.
With CC1(C)CC[C@]2(C(=O)O)CC[C@]3(C)C(=CC[C@@H]4[C@@]5(C)CC[C@H](O)C(C)(C)[C@@H]5CC[C@]43C)[C@@H]2C1 [Oleanolic acid] the Emax [7] was 20.3%, the AC50 [8] was 0.37 µM and the Emax [9] was -10.7%.
For C[C@@H]1CCN(C(=O)N2CCCC2)C[C@@H]1N(C)c1ncnc2[nH]ccc12 [PF-956980], the “Max (maximum activity value from all tested concentrations)” value [1] was 47.75%, the AC50 [2] was 23.3 µM and the “Efficacy (activity range between predicted activities at zero and infinite doses, Hill equation)” value [3] was 53.
With N#Cc1cccc(-c2c[nH]c3ncnc(N4CCOCC4)c23)c1 [PF-06447475] the “Max (maximum activity value from all tested concentrations)” value [1] was 42.8%, the AC50 [2] was 16.5 µM and the “Efficacy (activity range between predicted activities at zero and infinite doses, Hill equation)” value [3] was 44.6.
